Patent US9545389B2, “Baclofen and acamprosate based therapy of macular degeneration disorders” (PHARNEXT, priority 2012, dated 2017)

B1: BDNF: Brain-derived neurotrophic factor, used as a positive control (protein, UniProt P23560 19-247, looked up)
Neurotrophic factor BDNF …: APMKEANIRGQGGLAYPGVRTHGTLESVNGPKAGSRGLTSLADTFEHVIEELLDEDQKVRPNEENNKDADLYTSRVMLSSQVPLEPPLLFLLEEYKNYLDAANMSMRVRRHSDPARRGELSVCDSISEWVTAADKKTAVDMSGGTVTVLEKVPVSKGQLKQYFYETKCNPMGYTKEGCRGIDKRHWNSQCRTTQSYVRALTMDSKKRIGWRFIRIDTSCVCTLTIKRGR

What was measured:
Format in all cases: cell-based
[1] = system: Rat dopaminergic neurons (mesencephalic culture); assay: TH neurons survival test after 48 h 6-OHDA injury on dopaminergic neurons; details: for In vitro 6OHDA resistance: TH neurons survival after 48 h 6-OHDA (20 μM) injury
Protocol: Rat dopaminergic neurons were cultured as described by Schinelli et al. (1988). Pregnant female rats of 15 days gestation were killed by cervical dislocation (Rats Wistar; Janvier) and the foetuses removed from the uterus. The embryonic midbrains were removed and placed in ice-cold medium of Leibovitz (L15; PanBiotech) containing 2% of Penicillin-Streptomycin (PS; PanBiotech) and 1% of bovine serum albumin (BSA; PanBiotech). Only the ventral portions of the mesencephalic flexure were used for the cell preparations as this is the region of the developing brain rich in dopaminergic neurons. The midbrains were dissociated by trypsinisation for 20 min at 37° C. (Trypsin EDTA 1×; PanBiotech). The reaction is stopped by the addition of Dulbecco's modified Eagle's medium (DMEM; PanBiotech) containing DNAase I grade II (0.1 mg/ml; PanBiotech) and 10% of foetal calf serum (FCS; Invitrogen). Cells were then mechanically dissociated by 3 passages through a 10 ml pipette and centrifuged at 180×g for 10 min at +4° C. on a layer of BSA (3.5%) in L15 medium. The supernatant was discarded and the cells of pellet were re-suspended in a defined culture medium consisting of Neurobasal (Invitrogen) supplemented with B27 (2%; Invitrogen), L-glutamine (2 mM; PanBiotech) and 2% of PS solution and 10 ng/ml of Brain-derived neurotrophic factor (BDNF, PanBiotech) and 1 ng/ml of Glial-Derived Neurotrophic Factor (GDNF, PanBiotech). Viable cells were counted in a Neubauer cytometer using the trypan blue exclusion test. The cells were seeded at a density of 40 000 cells/well in 96 well-plates (pre-coated with poly-L-lysine (Greiner)) and are cultured at 37° C. in a humidified air (95%)/CO2 (5%) atmosphere. Half of the medium was changed every 2 days with fresh medium. Five to six percents of the neuronal cell population were dopaminergic neurons. […]
Data are expressed in percentage of control conditions (no intoxication, no 6OHDA=100%) in order to express the 6OHDA injury. All values are expressed as mean+/−SEM (s.e. mean) of the 3 cultures (n=6 wells per condition per culture). […]

Rat cortical neurons [2] = assay: Cytoplasmic cytochrome C (CytoC) assay in human amyloid-β1-42 intoxicated cortical neurons; set-up: key: − and −− intensity of lowering effect of compositions; − and −− intensity of lowering effect of compositions; details: Aβ1-42 1.25 μM 4 hours; lowering effect
Protocol: (§1) Rat cortical neurons were cultured as described by Singer et al., 1999 [28]. Briefly pregnant female rats of 15 days gestation were killed by cervical dislocation (Rats Wistar) and the fetuses were removed from the uterus. The cortex were removed and placed in ice-cold medium of Leibovitz (L15) containing 2% of Penicillin 10.000 U/ml and Streptomycin 10 mg/ml and 1% of bovine serum albumin (BSA). Cortex were dissociated by trypsin (0.05%) for 20 min at 37° C. The reaction was stopped by the addition of Dulbecco's modified Eagle's medium (DMEM) containing DNase1 grade II (0.1 mg/mL) and 10% of fetal calf serum (FCS). Cells were then mechanically dissociated by 3 serial passages through a 10 ml pipette. Cells were then centrifuged at 515×g for 10 min at 10° C. The supernatant was discarded and the pellet of cells will be re-suspended in a defined culture medium consisting of Neurobasal supplemented with B27 (2%), L-glutamine (0.2 mM), 2% of PS solution and 10 ng/mL of BDNF. Viable cells were counted in a Neubauer cytometer using the trypan blue exclusion test. […]
(§2) Data are expressed in percentage of control conditions (no intoxication, no amyloid=100%) in order to express the amyloid injury. All values are expressed as mean+/−SEM (s.e. mean) of the 3 cultures (n=6 wells per condition). […]

Rat cortical neurons [3] = assay: MetO assay (oxidative stress) in human amyloid-β1-42 intoxicated cortical neurons; set-up: key: − and −− intensity of lowering effect of compositions; − and −− intensity of lowering effect of compositions; details: Aβ1-42 1.25 μM 4 hours; lowering effect
Protocol: as §1, §2

Molecule | In vitro 6OHDA resistance [1] | In vitro CytC level (Rat cortical neurons [2]) | In vitro MetO level (Rat cortical neurons [3]) | protection of dopaminergic neurons from 6-OHDA injury ([1]; 1 hour pre-treatment at 1.85 nM, positive control)
CC(=O)NCCCS(=O)(=O)O [Acamprosate] | improvement | − | − | 
NCC(CC(=O)O)c1ccc(Cl)cc1 (stereo not shown) [Baclofen] | improvement | − | − | 
B1 |  |  |  | significantly protected
